{"source": "paper PMC2755957", "about": "(The Journal of Biological Chemistry, 2009)", "key": {"[1]": {"biological_target": "T1, mouse Δ1–24-L-PGDS (lipocalin type prostaglandin D synthase) (Mus musculus, UniProt O09114, H116A)", "T1 sequence (O09114 25-189 H116A)": "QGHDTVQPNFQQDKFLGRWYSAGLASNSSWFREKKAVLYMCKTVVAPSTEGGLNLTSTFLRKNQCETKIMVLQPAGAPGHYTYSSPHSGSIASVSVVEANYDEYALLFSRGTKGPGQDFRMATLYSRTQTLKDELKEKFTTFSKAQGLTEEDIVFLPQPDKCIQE", "experiment": "biochemical"}, "[2]": {"biological_target": "T2, mouse Δ1–24-L-PGDS (lipocalin type prostaglandin D synthase) (Mus musculus, UniProt O09114, W54A)", "T2 sequence (O09114 25-189 W54A)": "T1 sequence (O09114 25-189 H116A) with W30A, A92H", "experiment": "surface plasmon resonance", "type": "binding"}, "Δ^1–24-L-PGDS + P110A": {"biological_target": "T3, Δ^1–24-L-PGDS + P110A (Mus musculus, UniProt O09114, P110A)", "T3 sequence (O09114 1-189 P110A)": "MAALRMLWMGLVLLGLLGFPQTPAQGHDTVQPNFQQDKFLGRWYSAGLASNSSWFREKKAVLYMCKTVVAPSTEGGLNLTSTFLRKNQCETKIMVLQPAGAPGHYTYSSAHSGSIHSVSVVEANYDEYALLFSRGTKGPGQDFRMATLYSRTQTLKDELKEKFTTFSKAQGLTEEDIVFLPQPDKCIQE", "experiment": "biochemical"}, "[3]": {"biological_target": "T4, mouse Δ1–24-L-PGDS (lipocalin type prostaglandin D synthase) (Mus musculus, UniProt O09114, C65A)", "T4 sequence (O09114 25-189 C65A)": "T1 sequence (O09114 25-189 H116A) with C41A, A92H", "experiment": "surface plasmon resonance", "type": "binding"}, "Δ^1–24-C65A + P110A": {"biological_target": "T5, Δ^1–24-C65A + P110A (Mus musculus, UniProt O09114, C65A/P110A)", "T5 sequence (O09114 1-189 C65A/P110A)": "T3 sequence (O09114 1-189 P110A) with C65A", "experiment": "biochemical"}, "[4]": {"biological_target": "T1, mouse Δ1–24-L-PGDS (lipocalin type prostaglandin D synthase)", "experiment": "surface plasmon resonance", "type": "binding"}, "[5]": {"biological_target": "T6, Δ^1–24-L-PGDS + S45A/S81A (Mus musculus, UniProt O09114, S45A/S81A)", "T6 sequence (O09114 1-189 S45A/S81A)": "T3 sequence (O09114 1-189 P110A) with S45A, S81A, A110P", "experiment": "biochemical"}}, "note": "Numbering of substitutions follows the chain as printed."}
{"smiles": "CCCCC[C@H](O)/C=C/[C@H]1[C@@H]2CO[C@@H](C2)[C@@H]1C/C=C\\CCCC(=O)O", "note": "[U-44069]", "values": [{"measurement": "Kd", "setting": "[1]", "result": "27.3 ± 2.5", "unit": "µM"}, {"measurement": "Kd", "setting": "[2]", "result": "20.3 ± 1.9", "unit": "µM"}, {"measurement": "Kd", "setting": "Δ^1–24-L-PGDS + P110A", "result": "13.5 ± 3.1", "unit": "µM"}, {"measurement": "Kd", "setting": "[3]", "result": "20.2 ± 2.5", "unit": "µM"}, {"measurement": "Kd", "setting": "Δ^1–24-C65A + P110A", "result": "22.4 ± 1.4", "unit": "µM"}]}
{"smiles": "CCCCC[C@H](O)/C=C/[C@@H]1[C@@H](C/C=C\\CCCC(=O)O)[C@H]2CO[C@@H]1C2", "note": "[U-46619]", "values": [{"measurement": "Kd", "setting": "[4]", "result": "48.5 ± 4.4", "unit": "µM"}, {"measurement": "Kd", "setting": "[5]", "result": "19.1 ± 2.6", "unit": "µM"}, {"measurement": "Kd", "setting": "[2]", "result": "44 ± 3.9", "unit": "µM"}, {"measurement": "Kd", "setting": "[3]", "result": "22.1 ± 1.5", "unit": "µM"}]}
